System: Plasmodium berghei
Assay: Luciferase/luciferin-expressing antifolate-resistant parasites were used to infect a culture of HepG2 cells that were pre-incubated with compounds. Infected hepatocytes emit light due to the luciferase reaction. Assay results are presented as the percent inhibition of light emission compared to control. […]
Assay type: functional
Conditions: sporozoite; for IC90: read-out: LUCIFERASE INFECTION ASSAY - IC90
[1] = read-out: LUCIFERASE INFECTION ASSAY - IC50

Row | SMILES | IC90 [µM] | also measured
1 | CC/C(=N\NC(=O)COc1cccc(Br)c1)c1cc(F)ccc1O | 9.51 | IC50 (HEPG2TOX_HILL_SLOPE 1.42, HEPG2TOX_R_SQUARED 0.962, PBLUC_HILL_SLOPE 3.55, PBLUC_R_SQUARED 0.0785, read-out: LUCIFERASE INFECTION ASSAY - IC50): 5.12 µM
2 | Cc1cccc(-c2cc(NC=O)c3ncc(-c4ccc(S(C)(=O)=O)cc4)n3c2)c1 | > 8.14 | IC50 (FFLUC_HILL_SLOPE 0.295, FFLUC_R_SQUARED 0.0341, HEPG2TOX_HILL_SLOPE 11.3, HEPG2TOX_R_SQUARED 0.289, read-out: LUCIFERASE INFECTION ASSAY - IC50): > 8.14 µM
3 | CCOc1cccc(/C=C/c2ccc3cccc(O)c3n2)c1O | 10.6 | IC50 (PBLUC_HILL_SLOPE 16.2, PBLUC_R_SQUARED 0.451, read-out: LUCIFERASE INFECTION ASSAY - IC50): 9.23 µM
4 | Cc1nn(Cc2ccccc2)c(Cl)c1/C=C/C(=O)OC(C)C(=O)N1CCCC1 (stereo not drawn) | 4.19 | IC50 (PBLUC_HILL_SLOPE 3.98, PBLUC_R_SQUARED 0.412, read-out: LUCIFERASE INFECTION ASSAY - IC50): 2.41 µM
5 | CCCCNC(=O)c1c(NC(=O)c2cccc(C(F)(F)F)c2)nc2ccc(C)cn12 | 1 | IC50 (FFLUC_HILL_SLOPE 2.04, FFLUC_R_SQUARED 0.518, HEPG2TOX_HILL_SLOPE 1.13, HEPG2TOX_R_SQUARED 0.759, PBLUC_HILL_SLOPE 2.77, PBLUC_R_SQUARED 0.788, read-out: LUCIFERASE INFECTION ASSAY - IC50): 0.453 µM
6 | CNc1nc2cnc(Nc3ccc(OC(F)(F)F)cc3)cc2n1Cc1ccccc1 | 5.21 | IC50 (HEPG2TOX_HILL_SLOPE 3.1, HEPG2TOX_R_SQUARED 0.978, PBLUC_HILL_SLOPE 7.5, PBLUC_R_SQUARED 0.303, read-out: LUCIFERASE INFECTION ASSAY - IC50): 3.88 µM
7 | O=C(NCCSCc1ccc(Cl)cc1Cl)c1ccc(Cl)cc1 | > 8.81 | IC50 (PBLUC_HILL_SLOPE 13.4, PBLUC_R_SQUARED 0.244, read-out: LUCIFERASE INFECTION ASSAY - IC50): 7.79 µM
8 | CC(Sc1nnc2ccc(C(F)(F)F)cn12)C(=O)NCC1CCCO1 (stereo not drawn) | > 10 | IC50 [1]: > 10 µM
9 | Cc1ccc(F)cc1C(=O)Nc1nc2ccccn2c1C(=O)NC1CCCCC1 | 1.12 | IC50 (HEPG2TOX_HILL_SLOPE 1.92, HEPG2TOX_R_SQUARED 0.809, PBLUC_HILL_SLOPE 11.3, PBLUC_R_SQUARED 0.608, read-out: LUCIFERASE INFECTION ASSAY - IC50): 0.921 µM
10 | COc1ccc2nc(C)cc(NC(C)CCc3ccccc3)c2c1 (stereo not drawn) | > 10 | IC50 (PBLUC_HILL_SLOPE 1.9, PBLUC_R_SQUARED 0.397, read-out: LUCIFERASE INFECTION ASSAY - IC50): 6.04 µM
11 | CNc1nc2cnc(Nc3ccccc3)cc2n1-c1cccc(C(F)(F)F)c1 | > 10 | IC50 [1]: > 10 µM
12 | NC(=O)c1ccc(-c2cc(-c3cc(F)c(F)c(F)c3)cnc2N)cc1 | > 9.61 | IC50 [1]: > 9.61 µM
13 | COc1ccc(OC)c(CCNc2nc3cnc(-c4cccc(Cl)c4)cc3n2C)c1 | 1.4 | IC50 (HEPG2TOX_HILL_SLOPE 5.61, HEPG2TOX_R_SQUARED 0.886, PBLUC_HILL_SLOPE 7.64, PBLUC_R_SQUARED 0.579, read-out: LUCIFERASE INFECTION ASSAY - IC50): 1.05 µM
14 | Cc1ccc(OCCNC(=O)c2[nH]c3c(c2C)C(=O)CCC3)c(C)c1 | 2.74 | IC50 (HEPG2TOX_HILL_SLOPE 1.42, HEPG2TOX_R_SQUARED 0.935, PBLUC_HILL_SLOPE 2.91, PBLUC_R_SQUARED 0.758, read-out: LUCIFERASE INFECTION ASSAY - IC50): 1.29 µM
15 | Cc1ccc(NC(=O)/C(=C/c2cccc(F)c2)n2nnnc2C)cc1S(=O)(=O)N1CCCCCC1 | 4.24 | IC50 (HEPG2TOX_HILL_SLOPE 12.2, HEPG2TOX_R_SQUARED 0.863, PBLUC_HILL_SLOPE 25.1, PBLUC_R_SQUARED 0.833, read-out: LUCIFERASE INFECTION ASSAY - IC50): 3.89 µM
16 | CNC(=O)c1ccc(CN(Cc2csc(-c3ccsc3)n2)Cc2ccco2)cc1 | 3.26 | IC50 (PBLUC_HILL_SLOPE 16.0, 14.5, PBLUC_R_SQUARED 0.463, 0.641, read-out: LUCIFERASE INFECTION ASSAY - IC50): 2.83 µM
17 | FC(F)(F)Oc1cccc(-c2ccc3ncc(-c4cccs4)n3n2)c1 | > 10 | IC50 (PBLUC_HILL_SLOPE 2.85, PBLUC_R_SQUARED 0.222, read-out: LUCIFERASE INFECTION ASSAY - IC50): 9.07 µM
18 | O=[N+]([O-])c1cccc(OCC(O)CN2CCN(Cc3nc(-c4ccc(Cl)cc4)no3)CC2)c1 (stereo not drawn) | > 10 | IC50 (HEPG2TOX_HILL_SLOPE 10.3, HEPG2TOX_R_SQUARED 0.223, PBLUC_HILL_SLOPE 2.57, PBLUC_R_SQUARED 0.732, read-out: LUCIFERASE INFECTION ASSAY - IC50): 4.59 µM
19 | Cn1cc(Br)c(-c2cccc(NC(=O)Nc3ccc(Cl)cc3)c2)n1 | > 8.13 | IC50 (HEPG2TOX_HILL_SLOPE 7.05, HEPG2TOX_R_SQUARED 0.913, PBLUC_HILL_SLOPE 7.26, PBLUC_R_SQUARED 0.779, read-out: LUCIFERASE INFECTION ASSAY - IC50): > 8.13 µM
20 | COc1ccc(Nc2ccn3ncc(-c4ccc(OC)c(OC)c4)c3n2)cn1 | 1.73 | IC50 (HEPG2TOX_HILL_SLOPE 1.44, HEPG2TOX_R_SQUARED 0.951, PBLUC_HILL_SLOPE 2.71, PBLUC_R_SQUARED 0.798, read-out: LUCIFERASE INFECTION ASSAY - IC50): 0.768 µM

Row | SMILES | IC90 [µM] | also measured
21 | Cc1cc(N(C)Cc2ccccc2Br)nc(N)n1 | 2.29 | IC50 (HEPG2TOX_HILL_SLOPE 1.99, HEPG2TOX_R_SQUARED 0.929, PBLUC_HILL_SLOPE 3.52, PBLUC_R_SQUARED 0.797, read-out: LUCIFERASE INFECTION ASSAY - IC50): 1.23 µM
22 | CCc1cccc(Nc2nc3ccccc3s2)c1 | > 10 | IC50 (FFLUC_HILL_SLOPE 1.67, FFLUC_R_SQUARED 0.624, read-out: LUCIFERASE INFECTION ASSAY - IC50): > 10 µM
23 | COc1cc(NC(=O)COC(=O)c2c3c(nc4ccccc24)CCC(C(C)(C)C)C3)c(C)cc1[N+](=O)[O-] (stereo not drawn) | > 10 | IC50 (HEPG2TOX_HILL_SLOPE 0.52, HEPG2TOX_R_SQUARED 0.623, PBLUC_HILL_SLOPE 14.9, PBLUC_R_SQUARED 0.282, read-out: LUCIFERASE INFECTION ASSAY - IC50): > 10 µM
24 | Cn1ccc2cc(-c3cn4c(-c5ccc(C(=O)NC6CC6)cc5)cnc4cn3)ccc21 | 3.32 | IC50 [1]: 2.7 µM
25 | C=CCc1cc(C(=O)Nc2ccc3oc(C)nc3c2)cc(OC)c1OC | > 10 | IC50 [1]: 4.31 µM
26 | CCN(CC)S(=O)(=O)N1CCN(C(=O)c2[nH]nc3ccccc23)CC1 | 3.63 | IC50 (PBLUC_HILL_SLOPE 2.28, PBLUC_R_SQUARED 0.575, read-out: LUCIFERASE INFECTION ASSAY - IC50): 1.39 µM
27 | Cc1ccsc1C(=O)Nc1nc2cc3c(cc2s1)OCCO3 | > 10 | IC50 (HEPG2TOX_HILL_SLOPE 1.74, HEPG2TOX_R_SQUARED 0.923, PBLUC_HILL_SLOPE 0.323, PBLUC_R_SQUARED 0.422, read-out: LUCIFERASE INFECTION ASSAY - IC50): 0.658 µM
28 | CCOC(=O)c1sc(N)c(C#N)c1COC(=O)C1CCN(S(=O)(=O)c2ccc(C)c(C)c2)CC1 | > 10 | IC50 [1]: > 10 µM
29 | COc1ccc(-c2nc3ccc(NC(=O)Nc4ccc(OC)c(OC)c4)cn3n2)cc1 | > 10 | IC50 [1]: > 10 µM
30 | CO[C@H]1[C@@H](O)[C@@H](C)O[C@H](O[C@H]2CC[C@]3(C)C4CC[C@]5(C)[C@@H](C6=CC(=O)OC6)CC[C@]5(O)C4CC[C@]3(O)C2)[C@@H]1O (stereo partly drawn) | 0.258 | IC50 (HEPG2TOX_HILL_SLOPE 2.49, HEPG2TOX_R_SQUARED 0.917, PBLUC_HILL_SLOPE 3.98, PBLUC_R_SQUARED 0.716, read-out: LUCIFERASE INFECTION ASSAY - IC50): 0.148 µM
31 | C[S+]([O-])c1ccc(C(F)(F)F)cc1[N+](=O)[O-] (stereo not drawn) | > 13 | IC50 (HEPG2TOX_HILL_SLOPE 9.53, HEPG2TOX_R_SQUARED 0.815, PBLUC_HILL_SLOPE 1.65, PBLUC_R_SQUARED 0.298, read-out: LUCIFERASE INFECTION ASSAY - IC50): 11.1 µM
32 | O=C(CNc1cccc(S(=O)(=O)N2CCCCC2)c1)NC(=O)NC1CCCCC1 | > 10 | IC50 (PBLUC_HILL_SLOPE 11, PBLUC_R_SQUARED 0.0354, read-out: LUCIFERASE INFECTION ASSAY - IC50): 9.65 µM
33 | OCc1ccc(-c2ccc3ncc(-c4cccnc4)n3n2)cc1 | 1.91 | IC50 (HEPG2TOX_HILL_SLOPE 8.03, HEPG2TOX_R_SQUARED 0.878, PBLUC_HILL_SLOPE 5.07, PBLUC_R_SQUARED 0.745, read-out: LUCIFERASE INFECTION ASSAY - IC50): 1.24 µM
34 | COc1cncc(-c2cc3c(cn2)nc(NCCc2cc(OC)ccc2OC)n3C)c1 | 8.42 | IC50 (HEPG2TOX_HILL_SLOPE 0.77, HEPG2TOX_R_SQUARED 0.89, PBLUC_HILL_SLOPE 0.989, PBLUC_R_SQUARED 0.368, read-out: LUCIFERASE INFECTION ASSAY - IC50): 0.913 µM
35 | Oc1cc(OCCN2CCCCC2)ccc1-c1n[nH]cc1-c1ccccc1 | > 9.08 | IC50 [1]: > 9.08 µM
36 | O=C(OCc1csc(-c2ccccc2)n1)c1ccccc1Sc1ccc(C(F)(F)F)cc1[N+](=O)[O-] | > 10 | IC50 [1]: > 10 µM
37 | NC(=O)c1ccsc1NC(=O)COC(=O)c1ccc2c(c1Cl)C(=O)c1ccccc1C2=O | > 10 | IC50 [1]: > 10 µM
38 | COc1cc2[nH]c(CN3CCN(c4ncccn4)CC3)nc(=O)c2cc1OC | > 10 | IC50 (PBLUC_HILL_SLOPE 2.49, PBLUC_R_SQUARED 0.0972, read-out: LUCIFERASE INFECTION ASSAY - IC50): 7.74 µM
39 | c1ccc(C(Nc2ncnc3ccsc23)c2cccs2)cc1 (stereo not drawn) | 2.58 | IC50 [1]: 1.14 µM

— ChEMBL document CHEMBL4483862, “Open-source discovery of chemical leads for next-generation chemoprotective antimalarials” (2018)
